Holding throughout (type): biochemical
The target in one assay is Cathepsin D (Homo sapiens, UniProt P07339). In words: Cathepsin D Inhibitory Assay (FAM-SEVNLDAEFK-TAMRA substrate cleavage, fluorescence). Particulars: Assay (III). On the procedure:
(II) Cathepsin D Inhibitory Assay
(§1) For each compound being assayed, in a 384 well plate, is added:
(§2) a) 1 μl of a DMSO solution of the test compound (IC50 curve uses ten 1 in 2 serial dilutions from 500 μM).
(§3) b) 10 μl of substrate (FAM-SEVNLDAEFK-TAMRA) solution in buffer. This is prepared by diluting 2 ml of a 2 mM DMSO solution of the substrate into 400 ml of buffer (100 mM Sodium acetate pH=4.5, 1 l Milli-Q water, 0.06% Triton X-100 (0.5 ml/l), pH adjusted to 4.5 using glacial acetic acid). c) 10 μl enzyme solution. This is prepared by diluting 1.6 ml of a 200 unit/ml (in 10 mM HCl) enzyme solution into 398.4 ml of buffer (prepared as above).
(§4) Blank wells (enzyme solution replaced by buffer) are included as controls on each plate. Wells are incubated for 1 h at room temperature and fluorescence read using a Tecan Ultra Fluorimeter/Spectrophotometer (485 nm excitation, 535 nm emission).

Another assay concerns the target Asp-2 (Homo sapiens, UniProt P56817). Nature of the assay: Asp-2 Inhibitory Assay (FAM-[SEVNLDAEFK]-TAMRA substrate cleavage, fluorescence). To be noted: Assay (I). On the procedure: (I) Asp-2 Inhibitory Assay
as §1, §2
as §3, with “(FAM-[SEVNLDAEFK]-TAMRA)” for “(FAM-SEVNLDAEFK-TAMRA)”, “acid). Aminomethyl fluorescein (FAM) and tetramethyl rhodamine (TAMRA) are fluorescent molecules which co-operate to emit fluorescence at 535 nm upon cleavage of the SEVNLDAEFK peptide.” for “acid).”, “16” for “1.6”, “500 nM” for “200 unit/ml (in 10 mM HCl)”, “384” for “398.4”
as §4

The target of a further assay is T1, Asp-1 (Homo sapiens, UniProt Q9Y5Z0).
T1 sequence (Q9Y5Z0 63-518): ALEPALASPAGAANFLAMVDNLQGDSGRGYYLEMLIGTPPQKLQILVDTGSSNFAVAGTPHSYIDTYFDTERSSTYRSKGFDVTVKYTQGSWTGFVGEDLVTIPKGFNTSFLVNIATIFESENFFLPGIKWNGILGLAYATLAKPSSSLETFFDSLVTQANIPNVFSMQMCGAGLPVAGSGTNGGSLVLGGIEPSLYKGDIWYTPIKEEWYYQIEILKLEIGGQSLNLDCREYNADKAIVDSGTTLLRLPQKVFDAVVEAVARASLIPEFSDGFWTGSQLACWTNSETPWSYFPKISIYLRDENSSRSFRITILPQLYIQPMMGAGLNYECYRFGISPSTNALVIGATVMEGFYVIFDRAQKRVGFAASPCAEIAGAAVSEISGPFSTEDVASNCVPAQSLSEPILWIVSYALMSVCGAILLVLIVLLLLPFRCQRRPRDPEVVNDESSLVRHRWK
Nature of the assay: Asp-1 Inhibitory Assay (FAM-[SEVNLDAEFK]-TAMRA substrate cleavage, fluorescence). To be noted: Assay (II), pH 4.5, 2 h room temperature. The protocol: (II) Asp-1 Inhibitory Assay
as §1, §2
b) 10 μl of substrate (FAM-[SEVNLDAEFK]-TAMRA) solution in buffer. This is prepared by diluting 2 ml of a 2 mM DMSO solution of the substrate into 400 ml of buffer (100 mM Sodium acetate pH=4.5, 1 l Milli-Q water, 0.06% Triton X-100 (0.5 ml/l), pH adjusted to 4.5 using glacial acetic acid). c) 10 μl enzyme solution. This is prepared by diluting 4 ml of a 6.3 μM enzyme solution into 496 ml of buffer (100 mM Sodium acetate pH=4.5, 40 mM sodium chloride, 900 ml Milli-Q water, 100 ml glycerol, 0.2% CHAPS (2 g/l), pH adjusted to 4.5 using glacial acetic acid).
Blank wells (enzyme solution replaced by buffer) are included as controls on each plate. Wells are incubated for 2 h at room temperature and fluorescence read using a Tecan Ultra Fluorimeter/Spectrophotometer (485 nm excitation, 535 nm emission).

Where [1] appears, read: pH 4.5, 1 h room temperature, read-out: Cat. D IC50.
[2] abbreviates: pH 4.5, 1 h room temperature, read-out: Asp-2 IC50.
[3] abbreviates: range given for a group of Examples, read-out: range of inhibition (CatD).
Where [4] appears, read: range given for a group of Examples, read-out: range of inhibition (Asp-2).

Structures are written as SMILES. Read-outs that look alike come from different tables or passages of the source.

Chain of Cathepsin D (P07339 65-412, species assumed): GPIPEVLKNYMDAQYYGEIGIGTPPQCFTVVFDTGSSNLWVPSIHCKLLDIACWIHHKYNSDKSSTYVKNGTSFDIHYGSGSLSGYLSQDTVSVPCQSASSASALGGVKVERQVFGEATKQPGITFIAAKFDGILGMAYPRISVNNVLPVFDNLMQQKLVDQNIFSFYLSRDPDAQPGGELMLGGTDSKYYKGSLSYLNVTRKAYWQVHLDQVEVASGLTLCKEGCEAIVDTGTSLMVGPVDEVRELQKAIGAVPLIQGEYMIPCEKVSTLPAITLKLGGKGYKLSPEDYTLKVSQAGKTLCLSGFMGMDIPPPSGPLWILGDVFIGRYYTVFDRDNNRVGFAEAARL
Chain of Asp-2 (P56817 46-501): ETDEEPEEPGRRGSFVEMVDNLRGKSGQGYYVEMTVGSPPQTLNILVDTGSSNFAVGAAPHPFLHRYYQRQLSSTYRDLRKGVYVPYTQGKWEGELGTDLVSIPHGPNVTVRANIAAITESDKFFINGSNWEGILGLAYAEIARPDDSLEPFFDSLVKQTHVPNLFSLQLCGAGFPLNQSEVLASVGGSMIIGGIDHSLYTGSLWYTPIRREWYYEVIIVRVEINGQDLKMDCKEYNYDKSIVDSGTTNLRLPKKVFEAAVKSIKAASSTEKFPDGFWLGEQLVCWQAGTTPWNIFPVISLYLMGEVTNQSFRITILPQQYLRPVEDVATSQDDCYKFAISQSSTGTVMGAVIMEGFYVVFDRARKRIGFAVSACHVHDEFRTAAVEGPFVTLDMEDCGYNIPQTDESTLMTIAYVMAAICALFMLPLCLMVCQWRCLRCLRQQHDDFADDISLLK

`C[C@H](C[C@H](O)[C@H](Cc1ccccc1)NC(=O)c1ccc(F)c(N2CCCC2=O)c1)C(=O)NCCC(C)(C)C` (stereo in doubt) [Example E1, N-[(1S,2S,4R)-1-Benzyl-4-(3,3-dimethylbutylcarbamoyl)-2-hydroxypentyl]-4-fluoro-3-(2-oxopyrrolidin-1-yl)-benzamide]: the IC50 at Cathepsin D (setting [1]) is 13000 nM; on Asp-2 (setting [2]), 600 nM; at Asp-1 it was 6000 nM.
For `C=CCOc1cc(C(=O)N[C@@H](Cc2ccccc2)[C@@H](O)C[C@@H](C)C(=O)NCCC(C)(C)C)cc(N2CCCC2=O)c1` [Example E3, 3-Allyloxy-N-[(1S,2S,4R)-1-benzyl-4-(3,3-dimethylbutylcarbamoyl)-2-hydroxypentyl]-5-(2-oxopyrrolidin-1-yl)-benzamide], in that order: 2900 nM, 60 nM and 420 nM.
As to `CCCOc1cc(C(=O)N[C@@H](Cc2ccccc2)[C@@H](O)C[C@@H](C)C(=O)NCCC(C)(C)C)cc(N2CCCC2=O)c1` [Example E4, N-[(1S,2S,4R)-1-Benzyl-4-(3,3-dimethylbutylcarbamoyl)-2-hydroxypentyl]-3-(2-oxopyrrolidin-1-yl)-5-propoxybenzamide], the IC50 on Cathepsin D (setting [1]) was found to be 1800 nM; on Asp-2 (setting [2]), 35 nM; on Asp-1, 150 nM.
As to `C[C@H](C[C@H](O)[C@H](Cc1ccccc1)NC(=O)c1cc(N2CCCC2=O)cc(N2CCCC2=O)c1)C(=O)NC1CC2CCC1C2` (stereo partly drawn) [Example E8, N-[(1S,2S,4R)-1-Benzyl-4-(bicyclo[2.2.1]hept-2-ylcarbamoyl)-2-hydroxypentyl]-3,5-bis-(2-oxopyrrolidin-1-yl)benzamide], the figures for the IC50 on Cathepsin D (setting [3]) and on Asp-2 (setting [4]) were 340 to 3000 nM and 2 to 30 nM, respectively.
Take `CC(=O)Nc1cc(C(=O)N[C@@H](Cc2ccccc2)[C@@H](O)C[C@@H](C)C(=O)NC2CC3CCC2C3)cc(N2CCCC2=O)c1` (stereo partly drawn) [Example E10, 3-Acetylamino-N-[(1S,2S,4R)-1-benzyl-4-(bicyclo[2.2.1]hept-2-ylcarbamoyl)-2-hydroxypentyl]-5-(2-oxopyrrolidin-1-yl)benzamide]: the figures for the IC50 on Cathepsin D (setting [3]) and at Asp-2 (setting [4]) were 340 to 3000 nM and 2 to 30 nM, respectively.
Turning to `CC(C)Oc1cc(C(=O)N[C@@H](Cc2ccccc2)[C@@H](O)C[C@@H](C)C(=O)NC2CC3CCC2C3)cc(N2CCCC2=O)c1` (stereo partly drawn) [Example E14, N-[(1S,2S,4R)-1-Benzyl-4-(bicyclo[2.2.1]hept-2-ylcarbamoyl)-2-hydroxypentyl]-3-isopropoxy-5-(2-oxopyrrolidin-1-yl)benzamide], the values for the IC50 at Cathepsin D (setting [3]) and at Asp-2 (setting [4]) were 340 to 3000 nM and 2 to 30 nM, respectively.
For `C[C@H](C[C@H](O)[C@H](Cc1ccccc1)NC(=O)c1cccc(N2CCCC2=O)c1F)C(=O)NC1CC2CCC1C2` (stereo partly drawn) [Example E21, N-[(1S,2S,4R)-1-Benzyl-4-(bicyclo[2.2.1]hept-2-ylcarbamoyl)-2-hydroxypentyl]-2-fluoro-3-(2-oxopyrrolidin-1-yl)-benzamide], in that order: 340 to 3000 nM and 2 to 30 nM.
The like results for `C[C@H](C[C@H](O)[C@H](Cc1ccccc1)NC(=O)c1cc(N2CCCC2=O)cc(N2CCCC2=O)c1F)C(=O)NC1CC2CCC1C2` (stereo partly drawn) [Example E22, N-[(1S,2S,4R)-1-Benzyl-4-(bicyclo[2.2.1]hept-2-ylcarbamoyl)-2-hydroxypentyl]-2-fluoro-3,5-bis-(2-oxopyrrolidin-1-yl)benzamide] were, in that order, 340 to 3000 nM and 2 to 30 nM.
Regarding `CC(C)Oc1cc(C(=O)N[C@@H](Cc2ccccc2)[C@@H](O)C[C@@H](C)C(=O)NC2CCC2)cc(N2CCCC2=O)c1` [Example E26, N-[(1S,2S,4R)-1-Benzyl-4-(cyclobutylcarbamoyl)-2-hydroxypentyl]-3-isopropoxy-5-(2-oxopyrrolidin-1-yl)benzamide], the IC50 was 340 to 3000 nM at Cathepsin D (setting [3]) and 2 to 30 nM on Asp-2 (setting [4]).
For `C[C@H](C[C@H](O)[C@H](Cc1ccccc1)NC(=O)c1cc(N2CCCC2=O)cc(N2CCCC2=O)c1F)C(=O)NC1CCC(C(C)(C)C)CC1` (stereo partly drawn) [Example E32, N-[(1S,2S,4R)-1-Benzyl-4-(4-tert-butylcyclohexylcarbamoyl)-2-hydroxypentyl]-2-fluoro-3,5-bis-(2-oxopyrrolidin-1-yl)benzamide], in that order: 340 to 3000 nM and 2 to 30 nM.
